The target in series [1] is Acetylcholinesterase (Electrophorus electricus, UniProt O42275). In words: Inhibition of electric eel AChE preincubated for 15 mins followed by addition of acetylcholine iodide as substrate by Ellman's assay.
Series [2] deals with SH-SY5Y. In words: Cytotoxicity against human SH-SY5Y cells assessed as cell viability at 1.5 uM after 25 hrs by MTT assay relative to control. The series is classed as cell-based.
Series [3] concerns SH-SY5Y. In words: Cytotoxicity against human SH-SY5Y cells assessed as cell viability at 1.5 to 5 uM after 25 hrs by MTT assay. The series is classed as cell-based.
Series [4] in a line: Antioxidant activity assessed as DPPH radical scavenging activity at 1 mM after 30 mins. The series is classed as physicochemical. The settings on record: 0.5 h, 1000 µM.
In series [5] the target is Amyloid-beta precursor protein (Homo sapiens) (UniProt P05067). In words: Inhibition of Amyloid beta (1 to 42) (unknown origin) self-induced aggregation at 80 uM for 24 hrs by Thioflavin T-based fluorometric assay.
Series [6] in a line: Cytotoxicity against ovarian cancer cells (unknown origin). The series is classed as cell-based. Conditions: Cancer cell lines.
A short description of series [7]: Antioxidant activity assessed as DPPH radical scavenging activity after 30 mins. The series is classed as physicochemical.
The subject of series [8] is SH-SY5Y. In words: Neuroprotective activity against human SH-SY5Y cells assessed as reduction of H2O2-induced oxidative stress at 2.5 uM preincubated with compound for 1 hr followed by H2O2 addition for 24 hrs by MTT reduction assay. The series is classed as functional, cell-based.
Series [9] relates to SH-SY5Y. In words: Neuroprotective activity against human SH-SY5Y cells assessed as reduction of Amyloid beta 42-induced cytotoxicity at 2.5 uM preincubated with compound for 1 hr followed by Amyloid beta 42 peptide addition for 24 hrs by MTT reduction assay. The series is classed as functional, cell-based.
The test system of series [10] is SH-SY5Y. Nature of the series: Neuroprotective activity against human SH-SY5Y cells assessed as reduction of H2O2-induced oxidative stress at 5 uM preincubated with compound for 1 hr followed by H2O2 addition for 24 hrs by MTT reduction assay. The series is classed as functional, cell-based.
The subject of series [11] is SH-SY5Y. In words: Cytotoxicity against human SH-SY5Y cells assessed as cell viability at 2.5 uM after 25 hrs by MTT assay relative to control. The series is classed as cell-based.

SMILES strings stand for the structures. The source made the active and inactive calls. No cut-off for these calls is given here.

Sequence of Acetylcholinesterase (O42275 whole entry): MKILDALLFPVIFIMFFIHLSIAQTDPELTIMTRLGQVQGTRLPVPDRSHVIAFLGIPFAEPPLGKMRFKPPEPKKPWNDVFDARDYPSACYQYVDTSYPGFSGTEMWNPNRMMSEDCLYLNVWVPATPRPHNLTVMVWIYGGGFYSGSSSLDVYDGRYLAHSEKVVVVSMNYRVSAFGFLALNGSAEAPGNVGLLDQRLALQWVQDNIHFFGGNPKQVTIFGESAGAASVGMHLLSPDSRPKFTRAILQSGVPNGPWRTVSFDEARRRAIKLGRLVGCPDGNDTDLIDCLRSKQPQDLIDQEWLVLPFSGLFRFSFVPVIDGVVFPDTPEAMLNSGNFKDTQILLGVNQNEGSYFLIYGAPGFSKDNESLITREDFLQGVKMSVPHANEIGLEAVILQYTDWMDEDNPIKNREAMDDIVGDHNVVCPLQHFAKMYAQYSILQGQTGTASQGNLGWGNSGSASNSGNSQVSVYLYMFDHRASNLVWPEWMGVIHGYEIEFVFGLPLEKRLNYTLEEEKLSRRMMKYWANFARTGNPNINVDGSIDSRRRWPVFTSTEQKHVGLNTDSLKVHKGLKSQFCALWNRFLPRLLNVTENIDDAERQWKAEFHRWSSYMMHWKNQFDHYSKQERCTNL
Sequence of Amyloid-beta precursor protein (Homo sapiens) (P05067 whole entry): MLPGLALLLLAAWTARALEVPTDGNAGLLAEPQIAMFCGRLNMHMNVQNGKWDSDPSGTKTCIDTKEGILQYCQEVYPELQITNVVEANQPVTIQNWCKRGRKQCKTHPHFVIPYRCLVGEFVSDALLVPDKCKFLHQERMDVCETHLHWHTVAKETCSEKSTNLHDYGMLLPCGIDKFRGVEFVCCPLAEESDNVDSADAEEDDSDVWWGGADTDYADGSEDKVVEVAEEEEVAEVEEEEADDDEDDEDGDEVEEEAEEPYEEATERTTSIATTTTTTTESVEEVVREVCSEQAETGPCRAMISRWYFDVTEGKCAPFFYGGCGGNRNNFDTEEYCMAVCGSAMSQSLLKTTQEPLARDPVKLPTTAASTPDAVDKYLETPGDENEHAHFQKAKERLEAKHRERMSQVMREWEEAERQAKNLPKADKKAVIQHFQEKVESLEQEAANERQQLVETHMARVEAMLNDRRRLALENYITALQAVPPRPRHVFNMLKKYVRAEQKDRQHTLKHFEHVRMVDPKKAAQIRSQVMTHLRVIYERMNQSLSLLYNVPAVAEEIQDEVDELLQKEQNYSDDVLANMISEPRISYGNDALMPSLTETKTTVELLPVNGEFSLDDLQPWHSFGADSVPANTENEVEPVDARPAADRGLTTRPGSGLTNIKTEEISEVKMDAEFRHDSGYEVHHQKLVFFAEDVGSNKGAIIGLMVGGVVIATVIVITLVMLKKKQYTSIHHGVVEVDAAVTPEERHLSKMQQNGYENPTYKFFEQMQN

`O=C(/C=C/C=C/c1ccccc1)NCCNc1c2c(nc3ccccc13)CCCC2`: in series [1], half-maximal inhibition (IC50) was put at 320 nM. Also, the Activity entry in series [2] is on record as “Toxic”; in series [3] it was “Toxic”; in series [4] it was 15.6%.

In series [1], `O=C(/C=C/C=C/c1ccccc1)NCCCCNc1c2c(nc3ccccc13)CCCC2` gave a 50% inhibitory concentration (IC50) of 620 nM. Also, the Activity entry in [2] is recorded as “Toxic”; in [4] it was 23%.

The molecule `O=C(/C=C/c1ccccc1)NCCNc1c2c(nc3ccccc13)CCCC2` returned a half-inhibitory concentration (IC50) in series [1] of 770 nM. Also, the Activity entry in [3] is listed as “Toxic”; in [4], 7.9%.

For the molecule `O=C(/C=C/C=C/c1ccc2c(c1)OCO2)NCCCNc1c2c(nc3ccccc13)CCCC2`, the IC50 in [1] worked out at 130 nM; in series [6], 2500 nM. For the same molecule, the Activity entry is “Toxic” in series [3] and 20.8% in series [4]. This molecule also displayed an inhibition in series [5] of 72.2%.

The molecule `O=C(/C=C/c1ccc(O)c(O)c1)NCCNc1c2c(nc3ccccc13)CCCC2` yielded an IC50 in series [1] of 840 nM. For the same molecule, the Activity entry in [3] is reported as “Toxic”. The concentration giving a half-maximal response (EC50) in series [7] stood at 12300 nM.

In [1], `O=C(/C=C/c1ccc2c(c1)OCO2)NCCCCNc1c2c(nc3ccccc13)CCCC2` yielded an IC50 of 730 nM. In addition, the Activity entry in series [3] is “Toxic”; in series [4], 18.6%.

Turning to `COc1ccc(/C=C/C(=O)NCCNc2c3c(nc4ccccc24)CCCC3)cc1OC`, the half-maximal inhibitory concentration (IC50) in [1] came to 90 nM; in [6] it was 10400 nM. In series [5], this molecule registered an inhibition of 19.6%. The result in [8] and in [9] was Active. Besides, the Activity in [4] is 8.8%.

In series [1], `COc1ccc(/C=C/C(=O)NCCCCNc2c3c(nc4ccccc24)CCCC3)cc1OC` showed an IC50 of 390 nM. The Activity in [4] was found to be 16.1%.

For `O=C(/C=C/C=C/c1ccc(O)c(O)c1)NCCNc1c2c(nc3ccccc13)CCCC2`, the IC50 in series [1] was 1090 nM. Also, the Activity entry in [3] was “Non-toxic”. For the same molecule, the result in series [10] was Active. Also, the EC50 in [7] is 9500 nM.

With `COc1ccc(/C=C/C(=O)NCCCNc2c3c(nc4ccccc24)CCCC3)cc1OC`, the IC50 amounted to 90 nM in series [1] and 19500 nM in series [6]. The same molecule displayed an inhibition in series [5] of 56.5%. Also, the result in series [8] was Active. For the same molecule, the Activity in series [4] is given as 16.8%.

In turn, `O=C(/C=C/c1ccccc1)NCCCNc1c2c(nc3ccccc13)CCCC2` displayed a half-maximal inhibitory concentration (IC50) in [1] of 380 nM. Also, the values for the Activity result in series [11], in series [3] and in [4] were “Toxic”, “Toxic” and 16.3%, respectively.

For the molecule `O=C(/C=C/c1ccc(O)c(O)c1)NCCCNc1c2c(nc3ccccc13)CCCC2`, the IC50 in series [1] was determined as 980 nM. Also, the Activity entry in [3] is “Toxic”. In addition, the result in [10] was Active. In series [7], the concentration for a half-maximal effect (EC50) turned out to be 11300 nM.

In turn, `O=C(/C=C/C=C/c1ccc(O)c(O)c1)NCCCNc1c2c(nc3ccccc13)CCCC2` registered a half-inhibitory concentration (IC50) in series [1] of 480 nM. The Activity result in series [3] is listed as “Non-toxic”. For the same molecule, in series [7], the EC50 was 9100 nM.

As for `O=C(/C=C/c1ccc2c(c1)OCO2)NCCCNc1c2c(nc3ccccc13)CCCC2`, the IC50 in [1] stood at 130 nM; in series [6], 5820 nM. In addition, the Activity result was “Toxic” in [3] and 15.4% in series [4]. Besides, the inhibition in series [5] was 8.27%.

Molecule `O=C(/C=C/C=C/c1ccc2c(c1)OCO2)NCCNc1c2c(nc3ccccc13)CCCC2` yielded a 50% inhibitory concentration (IC50) in series [1] of 300 nM. Further, the Activity entry in series [2] is given as “Toxic”; in [3] it was “Toxic”; in [4] it was 26.2%.

For the molecule `O=C(/C=C/c1ccc2c(c1)OCO2)NCCNc1c2c(nc3ccccc13)CCCC2`, in series [1], the IC50 amounted to 180 nM. Moreover, the results for the Activity result in series [3] and in series [4] were “Toxic” and 12.2%, respectively. Also, the inhibition in series [5] was 30.9%.

In series [1], `O=C(/C=C/c1ccccc1)NCCCCNc1c2c(nc3ccccc13)CCCC2` came in with an IC50 of 850 nM. The outcome in series [9] was Active. In addition, in series [4], the Activity was determined as 22.5%.

In [1], `O=C(/C=C/C=C/c1ccccc1)NCCCNc1c2c(nc3ccccc13)CCCC2` had a half-inhibitory concentration (IC50) of 290 nM. Besides, the Activity entry is recorded as “Toxic” in series [3] and 16.9% in [4].

For the origin of these results see ChEMBL document CHEMBL3769323, “Design, synthesis and bioevaluation of tacrine hybrids with cinnamate and cinnamylidene acetate derivatives as potential anti-Alzheimer drugs” (Medchemcomm, 2015).
